These results are taken from patent US10219516B2, “Molecules having pesticidal utility, and intermediates, compositions, and processes, related thereto” (priority 2015, dated 2019).

Type in all cases: in vivo
The test system of assay [1] is Beet Armyworm (Spodoptera exigua, LAPHEG). Nature of the assay: Bioassay on Beet Armyworm (BAW), 128-well diet tray assay. The method in brief:
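Test molecule dissolved in acetone-water 90:10 is applied at 50 μg/cm^2 onto artificial diet and allowed to dry. Second instar larvae, one to five per well, are then added, and trays are vented and kept at 25° C. for five to seven days before mortality is scored.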

Assay [2] concerns Cabbage Looper (Trichoplusia ni, TRIPNI). Nature of the assay: Bioassay on Cabbage Looper (CL), 128-well diet tray assay. The following applies: Trichoplusia ni. The method in brief: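 Test molecule is dissolved in 90:10 acetone-water and applied at 50 μg/cm^2 onto artificial diet, then dried. One to five second-instar larvae go into each of eight wells. Trays, sealed but vented, stay at 25° C., 14:10 light-dark, five to seven days, after which mortality is averaged.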

The test system of assay [3] is Yellow Fever Mosquito (Aedes aegypti, AEDSAE). In words: Bioassay on Yellow Fever Mosquito (YFM), 96-well plate larval assay. The following applies: for YFM rating: Yellow Fever Mosquito, 96-well plate larval assay; for YFM (Biological Results, rating): Species YFM (Yellow Fever Mosquito). The method in brief: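 Aedes aegypti larvae (about 1 day old) in liver-powder water were added to plates dispensed from DMSO master plates (4000 ppm stock) diluted with 90:10 water/acetone; six replicate plates per master. Lidded plates were held at room temperature for 3 days, then each well was scored for mortality.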

Where [4] appears, read: Beet Armyworm, 128-well diet tray assay, read-out: BAW rating.
The mark [5] stands for this setting: Cabbage Looper, 128-well diet tray assay, read-out: CL rating.
The mark [6] stands for this setting: Species BAW (Beet Armyworm), read-out: BAW (Biological Results, rating).
[7] abbreviates: Species CL (Cabbage Looper), read-out: CL (Biological Results, rating).

Where a name gives a salt, the structure may show the parent alone. Read-outs that look alike come from different tables or passages of the source.

Take `O=C(Nc1cc(F)ccc1F)c1cc(NC(=O)C2C(c3cc(Cl)cc(Cl)c3)C2(Cl)Cl)ccc1Cl` (stereo not drawn) [PF118, 2-Chloro-5-(trans)-2,2-dichloro-3-(3,5-dichlorophenyl)cyclopropane-1-carboxamido)-N-(2,5-difluorophenyl)benzamide]: the pest or weed control at 50 µg/cm2 in assay [1] (setting [4]) and in assay [2] (setting [5]) was 50 to 100% each time. Further, the YFM rating entry in assay [3] is on record as “B (More than 0-Less than 80)”.

In the case of `C=Cc1ccc(NC(=O)[C@H]2[C@H](c3cc(Cl)cc(Cl)c3)C2(Cl)Cl)cc1C(=O)Nc1ccc(F)cc1` (relative stereo) [PF9, trans-5-(2,2-Dichloro-3-(3,5-dichlorophenyl)cyclopropanecarboxamido)-N-(4-fluorophenyl)-2-vinylbenzamide], the pest or weed control at 50 µg/cm2 in assay [1] (setting [4]) and in assay [2] (setting [5]) was 50 to 100% each time. For the same molecule, in assay [3], the YFM rating entry is on record as “A (80-100)”.

Take `O=C(Nc1ccc(Cl)c(Cl)c1F)c1cc(NC(=O)C2C(c3cc(Cl)cc(Cl)c3)C2(Cl)Cl)ccc1Cl` (stereo not drawn) [PF127, 2-Chloro-N-(3,4-dichloro-2-fluorophenyl)-5-(trans)-2,2-dichloro-3-(3,5-dichlorophenyl)cyclopropane-1-carboxamido)benzamide]: the pest or weed control at 50 µg/cm2 in assay [1] (setting [4]) and in assay [2] (setting [5]) was 50 to 100% each time. Moreover, in assay [3], the YFM rating result is recorded as “A (80-100)”.

Turning to `CC(=O)Nc1cccc(NC(=O)c2cc(NC(=O)[C@H]3[C@H](c4cc(Cl)cc(Cl)c4)C3(Cl)Cl)ccc2Cl)n1` (relative stereo) [F494, N-(6-Acetamidopyridin-2-yl)-2-chloro-5-(trans-2,2-dichloro-3-(3,5-dichlorophenyl)cyclopropane-1-carboxamido)benzamide], the pest or weed control at 50 µg/cm2 in assay [1] (setting [4]) and in assay [2] (setting [5]) was 50 to 100% in each case. In assay [3], the YFM rating result is reported as “A (80-100)”.

In the case of `Nc1cc(C(F)(F)F)cc(NC(=O)c2cc(NC(=O)C3C(c4cc(Cl)cc(Cl)c4)C3(Cl)Cl)ccc2Cl)n1` (stereo not drawn) [F328, N-(6-Amino-4-(trifluoromethyl)pyridin-2-yl-2-chloro-5-(trans-2,2-dichloro-3-(3,5-dichlorophenyl)cyclopropane-1-carboxamido)benzamide], the pest or weed control at 50 µg/cm2 in assay [1] (setting [6]) and in assay [2] (setting [7]) was 50 to 100% each time. The “YFM (Biological Results, rating)” value in assay [3] is on record as “A (80-100)”.

As to `O=C(Nc1ccc(F)cc1F)c1cc(NC(=O)[C@H]2[C@H](c3cc(F)cc(F)c3)C2(Cl)Cl)ccc1Cl` (relative stereo) [F411, 2-Chloro-5-(trans)-(2,2-dichloro-3-(3,5-difluorophenyl)cyclopropane-1-carboxamido)-N-(2,4-difluorophenyl)benzamide], the pest or weed control at 50 µg/cm2 in assay [1] (setting [4]) and in assay [2] (setting [5]) was 50 to 100% each time. For the same molecule, the YFM rating result in assay [3] is on record as “A (80-100)”.

On to `COc1cc(NC(=O)c2cc(NC(=O)[C@H]3[C@H](c4ccc(F)c(Cl)c4)C3(Cl)Cl)ccc2Cl)c(Br)cn1` (relative stereo) [F549, N-(5-Bromo-2-methoxypyridin-4-yl)-2-chloro-5-(trans-2,2-dichloro-3-(3-chloro-4-fluorophenyl)cyclopropane-1-carboxamido)benzamide], for which the pest or weed control at 50 µg/cm2 in assay [1] (setting [4]) and in assay [2] (setting [5]) was 50 to 100% each time. In addition, in assay [3], the YFM rating result is “A (80-100)”.

For the molecule `Nc1ccc(F)cc1NC(=O)c1cc(NC(=O)[C@H]2[C@H](c3cc(Cl)cc(Cl)c3)C2(Cl)Cl)ccc1Cl` [F373, N-(2-Amino-5-fluorophenyl)-2-chloro-5-((1R,3R)-2,2-dichloro-3-(3,5-dichlorophenyl)cyclopropane-1-carboxamido)benzamide], the pest or weed control at 50 µg/cm2 in assay [1] (setting [4]) and in assay [2] (setting [5]) was 50 to 100% in each case. Besides, the YFM rating result in assay [3] is “A (80-100)”.

For `Nc1cc(F)cc(NC(=O)c2cc(NC(=O)[C@H]3[C@H](c4cc(Cl)cc(Cl)c4)C3(Cl)Cl)ccc2Cl)c1` [F419, N-(3-Amino-5-fluorophenyl)-2-chloro-5-((1R,3R)-2,2-dichloro-3-(3,5-dichlorophenyl)cyclopropane-1-carboxamido)benzamide], the pest or weed control at 50 µg/cm2 in assay [1] (setting [4]) and in assay [2] (setting [5]) was 50 to 100% in each case. Further, the YFM rating result in assay [3] is given as “B (More than 0-Less than 80)”.

As to `CN(C(=O)c1cc(NC(=O)[C@H]2[C@H](c3cc(F)cc(C(F)F)c3)C2(Cl)Cl)ccc1Cl)c1ccc(F)cc1` (relative stereo) [F594, 2-Chloro-5-(trans-2,2-dichloro-3-(3-(difluoromethyl)-5-fluorophenyl)cyclopropane-1-carboxamido)-N-(4-fluorophenyl)-N-methylbenzamide], the pest or weed control at 50 µg/cm2 in assay [1] (setting [4]) and in assay [2] (setting [5]) was 50 to 100% throughout. The YFM rating entry in assay [3] is recorded as “A (80-100)”.

In the case of `C=C(F)c1cc(Cl)cc([C@H]2[C@H](C(=O)Nc3ccc(Cl)c(C(=O)Nc4ccc(F)cc4C#N)c3)C2(Cl)Cl)c1` (relative stereo) [F387, 2-Chloro-N-(2-cyano-4-fluorophenyl)-5-(trans-2,2-dichloro-3-(3-chloro-5-(1-fluorovinyl)phenyl)cyclopropane-1-carboxamido)benzamide], the pest or weed control at 50 µg/cm2 in assay [1] (setting [4]) and in assay [2] (setting [5]) was 50 to 100% each time. In assay [3], the YFM rating result is reported as “A (80-100)”.

On to `N#Cc1cc(F)ccc1NC(=O)c1cc(NC(=O)[C@H]2[C@H](c3cccc(C(F)(F)F)c3)C2(Cl)Cl)ccc1Cl` (relative stereo) [F340, trans-2-Chloro-N-(2-cyano-4-fluorophenyl)-5-(2,2-dichloro-3-(3-(trifluoromethyl)phenyl)cyclopropane-1-carboxamido)benzamide], for which the pest or weed control at 50 µg/cm2 in assay [1] (setting [6]) and in assay [2] (setting [7]) was 50 to 100% throughout. Besides, in assay [3], the “YFM (Biological Results, rating)” value is “A (80-100)”.

As to `Nc1cc(NC(=O)c2cc(NC(=O)[C@H]3[C@H](c4ccc(F)c(Cl)c4)C3(Cl)Cl)ccc2Cl)c(F)cc1F` [F403, N-(5-Amino-2,4-difluorophenyl)-2-chloro-5-((1R,3R)-2,2-dichloro-3-(3-chloro-4-fluorophenyl)cyclopropane-1-carboxamido)benzamide], the pest or weed control at 50 µg/cm2 in assay [1] (setting [4]) and in assay [2] (setting [5]) was 50 to 100% throughout. Further, in assay [3], the YFM rating entry is listed as “A (80-100)”.

For `CN1Cc2cc(NC(=O)c3cc(NC(=O)[C@H]4[C@H](c5cc(Cl)cc(Cl)c5)C4(Cl)Cl)ccc3Cl)ccc2C1=O` (relative stereo) [F518, 2-Chloro-5-(trans)-(2,2-dichloro-3-(3,5-dichlorophenyl)cyclopropane-1-carboxamido)-N-(2-methyl-1-oxoisoindolin-5-yl)benzamide], the pest or weed control at 50 µg/cm2 in assay [1] (setting [4]) and in assay [2] (setting [5]) was 50 to 100% each time. Moreover, the YFM rating result in assay [3] is on record as “A (80-100)”.

In the case of `O=C(Nc1cc2[nH]ccc2cc1Br)c1cc(NC(=O)C2C(c3cc(Cl)cc(Cl)c3)C2(Cl)Cl)ccc1Cl` (stereo not drawn) [F172, N-(5-Bromo-1H-indol-6-yl)-2-chloro-5-(trans)-2,2-dichloro-3-(3,5-dichlorophenyl)cyclopropane-1-carboxamido)benzamide], the pest or weed control at 50 µg/cm2 in assay [1] (setting [6]) and in assay [2] (setting [7]) was 50 to 100% throughout. The “YFM (Biological Results, rating)” value in assay [3] was “B (More than 0-Less than 80)”.

Take `CNc1ccc(NC(=O)c2cc(NC(=O)[C@H]3[C@H](c4cc(Cl)cc(Cl)c4)C3(Cl)Cl)ccc2Cl)cc1` (relative stereo) [PF22, trans-2-Chloro-5-(2,2-dichloro-3-(3,5-dichlorophenyl)cyclopropane-1-carboxamido)-N-(4-(methylamino)phenyl)benzamide hydrochloride]: the pest or weed control at 50 µg/cm2 in assay [1] (setting [4]) and in assay [2] (setting [5]) was 50 to 100% each time. For the same molecule, the YFM rating entry in assay [3] is “A (80-100)”.

`Cc1cc(NC(=O)OC(C)(C)C)ccc1NC(=O)c1cc(NC(=O)[C@H]2[C@H](c3ccc(Br)c(Cl)c3)C2(Cl)Cl)ccc1Cl` (relative stereo) [F322, tert-Butyl (4-(5-(trans-3-(4-bromo-3-chlorophenyl)-2,2-dichlorocyclopropane-1-carboxamido)-2-chlorobenzamido)-3-methylphenyl)carbamate]: the pest or weed control at 50 µg/cm2 in assay [1] (setting [6]) and in assay [2] (setting [7]) was 50 to 100% each time. Besides, in assay [3], the “YFM (Biological Results, rating)” value is recorded as “A (80-100)”.

For `CN(C(=O)c1cccc(NC(=O)[C@H]2[C@H](c3cc(Cl)cc(Cl)c3)C2(Cl)Cl)c1F)c1ccccc1` (relative stereo) [F69, trans-3-(2,2-Dichloro-3-(3,5-dichlorophenyl)cyclopropane-1-carboxamido)-2-fluoro-N-methyl-N-phenylbenzamide], the pest or weed control at 50 µg/cm2 in assay [1] (setting [6]) and in assay [2] (setting [7]) was 50 to 100% in each case. Moreover, the “YFM (Biological Results, rating)” value in assay [3] is recorded as “B (More than 0-Less than 80)”.

For the molecule `Nc1ccc(F)cc1NC(=O)c1cc(NC(=O)[C@H]2[C@H](c3ccc(F)c(Cl)c3)C2(Cl)Cl)ccc1Cl` [F421, N-(2-Amino-5-fluorophenyl)-2-chloro-5-((1R,3R)-2,2-dichloro-3-(3-chloro-4-fluorophenyl)cyclopropane-1-carboxamido)benzamide], the pest or weed control at 50 µg/cm2 in assay [1] (setting [4]) and in assay [2] (setting [5]) was 50 to 100% in each case. For the same molecule, the YFM rating entry in assay [3] is “A (80-100)”.
